Test results published in patent publication US7115665B1, “Inhibitors of endo-exonuclease activity for treating cancer” (Onocozyme Pharma, Inc., priority 2000, dated 2006).
Like-named read-outs stand apart in the source and are kept apart here.

What was measured:
human endo-exonuclease = experiment: Endo-exonuclease nuclease activity inhibition assay; assay type: biochemical
Procedure: The cultured cells were detached with trypsin-EDTA and the cell suspensions were centrifuged at 4° C. with a force of 700 g for 10 minutes. The cell pellets were washed twice with cold phosphate buffered saline (PBS). The cells were then resuspended and sonicated in 20 mM Tris-HCl, pH 7.5, containing 5 mM EDTA and 1 mM PMSF (buffer A). The resulting cell lysis suspensions were centrifuged at 4° C. at 10,000 g for 15 min. […] After washing extensively with buffer A, (i.e. until the A280 of the eluates were zero), the column was then eluted with buffer A containing 3.5 M MgCl2 to elute the endo-exonuclease. The eluted endo-exonuclease was dialyzed extensively against buffer A with at least two changes of buffer and one change of distilled water. The endo-exonuclease was then concentrated by lyophilization.
One unit of activity was defined as the amount of deoxyribonuclease that renders 1 μg of DNA acid-soluble in 30 min at 37° C. For the inhibition assay with the drugs, the drugs were added to the endo-exonuclease prior to the start of the nuclease reaction.

H520 NSCLC cells = experiment: cells; conditions: read-out: LC50
H460 NSCLC cells = experiment: cells; conditions: read-out: LC50
H661 NSCLC cells = experiment: cells; conditions: read-out: LC50
[1] = system: MCF-7 breast cancer cells; conditions: read-out: LC50; MCF-7, 2 day exposure
HT29 colon cancer cells [2] = conditions: read-out: LC50; HT29, 2 day exposure
[3] = system: MCF-7 breast cancer cells; experiment: cells; conditions: Homo sapiens, read-out: LC50
HT29 colon cancer cells [4] = experiment: cells; conditions: Homo sapiens, read-out: LC50
MCF7 cells = experiment: Cell survival, clonogenic assay; assay type: cell-based, human; conditions: 1 week growth
HeLa cells = experiment: Cell survival, clonogenic assay; assay type: cell-based, human; conditions: 1 week growth
[5] = system: normal primary human cells (human primary fibroblast cells); experiment: Cell survival, clonogenic assay; assay type: cell-based; conditions: same conditions (0.1 mM to 1 mM)
Source text: These cells are normal human skin fibroblasts.

cancer cells = experiment: Efficiency of drug combination at killing cancer cells; assay type: cell-based; conditions: FIG. 4; efficiency from LC50 ratios
[6] = system: Lewis lung carcinoma (M47) primary tumour
Procedure: Lewis Lung Carcinoma Cell Line and Cell Culture: The Lewis lung carcinoma clone, M47, is a metastatic model. […] For tumour induction, cells were washed three times with phosphate buffer solution. They were then re-suspended at a dilution of 1×10^6 cells/0.1 ml. Only cells where viability was >95% were used for in vivo studies.
The mouse strain used in this study was C57BL/10. After one-week of acclimatization, cells were transplanted into the mice subcutaneously, as a suspension of tumour cells. All animals were inoculated at the same site.
To measure the effect of drugs on the primary tumour, drug solutions were administered by intraperitoneal (ip) injection every two days. Animals were subjected, on a daily basis, to general examination. Tumour growth was monitored over time. To determine the effect of drugs on tumour metastasis, the tumours were allowed to reach a size of 0.5–1.0 cm^3. Mice were randomized into various groups and the drugs were then given by ip. At the end of each experiment, animals were sacrificed and autopsied. Tumours, organs or both were removed under sterile conditions. Tumours were weighed. Organs were examined for gross pathological changes and then fixed in formalin. Lungs were fixed in Bouin's fixative and lung surface metastases were counted using a stereomicroscope.
The Lewis lung carcinoma clone, M47, with a high metastatic potential to the lung was used. […] The cell used was confirmed to be free of mycoplasma. Cells were maintained in RPMI-1640 medium supplemented with 10% fetal bovine serum and 1% penicillin-streptomycin, under 5% CO2. Cells were then propagated and stocks of the same passages were established and stored in liquid nitrogen. Oncozyme studies were done with the same stock of cells and same passage number.
For tumour induction, cells were grown to 70% confluence in complete medium and then collected using trypsin-EDTA solution [0.05% trypsin 0.53 mM EDTA-4Na in HBSS without Ca++. Mg++, and NaHCO3; Celigro No. 25–052-Li]. Cells were then centrifuged and washed three times with phosphate buffer solution [D-PBS, Ca++ and Mg++free; Cellgro No. 21–031-LV], and resuspended at a dilution of 0.1 to 1×10^6 cells/0.1 ml. Viability was examined by trypan blue staining and only cells in which the viability was >95% were used for in vivo studies.
The mouse strain used in this study is C57BL/10 from Charles River Inc. Animals were housed 5 per cage and were fed a diet of animal chow and water ad libitum. After one week acclimatization, LLC cells were transplanted subcutaneously, as a suspension of tumour cells [2−5×10^5 viable cells per 0.1 ml], in the axillary region of the right flank. All animals were inoculated at the same site. Animals were subjected, on a daily basis, to general examination. Tumour growth was monitored every second or third day using calipers. Parameters measured were: tumour measured along the longest axis (length) and the perpendicular shortest axis (width) and the relative tumour volume (in cm^3) was calculated by the formula: [length (cm)×(width cm)^2] (approximately 10–15 days), mice were randomized into one of the following groups:
The conditions for this group were identical to the group used for the experiments on metastases with the exception that the primary tumour was not removed, and the animals were maintained until the tumours reached a large size that justified animal sacrifice, or the animals manifested a discomfort that justified their sacrifice (reduced mobility, severe respiratory symptoms, etc.).
Control animals were given the same volume of saline solution [0.9% sodium chloride]. The dose of each drug was normalized to body weight per animal.
(§1) The pentamidine and cisplatinum were injected by intraperitoneal injections. Adriamycin was injected intravenously.

[7] = system: Lewis lung carcinoma (M47) lung metastases; experiment: Lewis lung carcinoma lung metastases; assay type: in vivo, mouse (C57BL/10); conditions: for Number of Metastases/Lung: Blank 34 ± 3
Source text: All animals were inoculated at the same site.
Tumour growth was monitored over time. […] Tumours, organs or both were removed under sterile conditions. Tumours were weighed.
Animals were subjected to surgery to remove the primary tumour. The mice were lightly anesthetized with Forane. The skin overlying the tumour was cleaned with betadine and ethanols, in a laminar flow hood. A small skin incision (0.5–1 cm) was made using a sterile scalpel, and the tumour was carefully separated from the normal tissues (skin and muscle). Lewis Lung carcinoma cells (at early stage of growth; 1–3 weeks) are a well localized tumour and separation was easy to achieve without any significant damage to normal tissues. The tumour was removed, weighed and in some cases fixed for histopathology purposes. The wound was closed with surgical stainless steel clips (Autoclips; 9 mm; Clay Adams, Inc. Parsippany, N.J.). This site was further disinfected with betadine and the animal was housed as described earlier.
In this group, mice were randomized after surgery into a group of 5 per cage. Cages were randomly assigned to specific experimental groups. The mice were then labelled by numbers using the “ear punching” method. Mice were checked on a daily basis to ensure the absence of infection. Animals with discomfort were sacrificed immediately. For each experiment, an additional extra spared group of control mice was included to determine the optimal timing for sacrifice in order to obtain a significant number of well localized lung metastases. This group was subjected to the same experimental procedure as group 1 with the exception of drug treatment.
as §1
At the end of each experiment (a total of 5–8 weeks), animals were sacrificed by dislocation and autopsied. Tumours, organs or both were removed under sterile conditions [using a laminar flow hood]. Tumours were weighed. […] Lungs were fixed in 10% Bouin's fixative diluted in a formalin solution, and lung surface metastases were counted using a stereomicroscope at 4× magnification or a magnifying-glass, and in some cases lungs were embedded in paraffin wax according to standard procedures. Embedded tissues were used to confirm metastases and further examine histopathological changes.

[8] = mouse, in vivo, ip
Procedure: (§2) A preliminary study was conducted on non-tumour bearing mice to examine the maximal tolerable doses of pentamidine that can be used for antitumour studies. Three intraperitoneal injections (day 1, day 3, and day 5) were tested of 25, 50, 100 and 200 mg/Kg of body weight respectively.

[9] = system: RIF-1 radiation-induced fibrosarcoma tumour; experiment: RIF tumour mouse model, polymer implant
[10] = Toxicity / maximal tolerable dose in non-tumour bearing mice; conditions: 100 mg/Kg ip, days 1, 3, 5, FIG. 8
Procedure: as §2

Compound: CC(=O)NCC(=O)O.CC(=O)NCC(=O)O.N=C(N)c1ccc(N=NNc2ccc(C(=N)N)cc2)cc1 [Berenil, berenil]
- Percent of Inhibition of endo-exonuclease activity (human endo-exonuclease; 2 mM): 17%
- CC50 (H520 NSCLC cells; H520, 2 day exposure): > 4 mM
- CC50 (H460 NSCLC cells; H460, 2 day exposure): > 4 mM
- CC50 (H661 NSCLC cells; H661, 2 day exposure): > 4 mM
- CC50 [1]: 3 mM
- CC50 (HT29 colon cancer cells [2]): > 4 mM

Compound: Cn1cc(NC(=O)c2cc(NC(=O)c3cc(NC=O)cn3C)cn2C)cc1C(=O)NCCC(=N)N [Distamycin A, distamycin A]
- Percent of Inhibition of endo-exonuclease activity (human endo-exonuclease; 38 μM): 30%
- CC50 (H520 NSCLC cells; H520, 2 day exposure): > 2 mM
- CC50 (H460 NSCLC cells; H460, 2 day exposure): > 2 mM
- CC50 (H661 NSCLC cells; H661, 2 day exposure): > 2 mM
- CC50 [1]: 1.52 mM
- CC50 (HT29 colon cancer cells [2]): > 2 mM

Compound: COc1cc([C@@H]2c3cc4c(cc3[C@@H](O[C@@H]3O[C@@H]5CO[C@@H](C)O[C@H]5[C@H](O)[C@H]3O)[C@H]3COC(=O)[C@H]23)OCO4)cc(OC)c1O [Etoposide, etoposide]
- Percent of Inhibition of endo-exonuclease activity (human endo-exonuclease; 50 μM): 0%
- CC50 (H520 NSCLC cells; Homo sapiens, NCI-H520, 48 h): > 34 mM
- CC50 (H520 NSCLC cells; Homo sapiens, NCI-H520, 96 h): > 34 mM
- CC50 (H460 NSCLC cells; Homo sapiens, NCI-H460, 48 h): > 34 mM
- CC50 (H460 NSCLC cells; Homo sapiens, NCI-H460, 96 h): > 34 mM
- CC50 (H661 NSCLC cells; Homo sapiens, NCI-H661, 48 h): 28 mM
- CC50 (H661 NSCLC cells; Homo sapiens, NCI-H661, 96 h): 15.6 mM
- CC50 ([3]; MCF7, 48 h): 1000 µM
- CC50 ([3]; MCF7, 96 h): 1100 µM
- CC50 (HT29 colon cancer cells [4]; HT-29, 48 h): 700 µM
- CC50 (HT29 colon cancer cells [4]; HT-29, 96 h): 400 µM

Compound: CO[C@@]12[C@H](COC(N)=O)C3=C(C(=O)C(C)=C(N)C3=O)N1C[C@@H]1N[C@@H]12 [Mitomycin C, mitomycin C]
- Percent of Inhibition of endo-exonuclease activity (human endo-exonuclease; 50 μM): 0%

Compound: N=C(N)c1ccc(OCCCCCOc2ccc(C(=N)N)cc2)cc1 [Pentamidine, pentamidine]
- Percent of Inhibition of endo-exonuclease activity (human endo-exonuclease; 25 μM): 37%
- Percent of Inhibition of endo-exonuclease activity (human endo-exonuclease; 50 μM): 50%
- Percent of Inhibition of endo-exonuclease activity (human endo-exonuclease; 100 μM): 100%
- Concentration at which compound began to kill the cancer cells (MCF7 cells): 0.1 mM
- Lethal concentration (MCF7 cells): 1 mM
- Concentration at which compound began to kill the cancer cells (HeLa cells): 0.1 mM
- Lethal concentration (HeLa cells): 1 mM
- Effect on survival of normal primary human cells [5]: no effect
- CC50 (H520 NSCLC cells; Homo sapiens, NCI-H520, 48 h): 0.24 mM
- CC50 (H520 NSCLC cells; Homo sapiens, NCI-H520, 96 h): 0.13 mM
- CC50 (H460 NSCLC cells; Homo sapiens, NCI-H460, 48 h): 1.34 mM
- CC50 (H460 NSCLC cells; Homo sapiens, NCI-H460, 96 h): 0.16 mM
- CC50 (H661 NSCLC cells; Homo sapiens, NCI-H661, 48 h): 0.15 mM
- CC50 (H661 NSCLC cells; Homo sapiens, NCI-H661, 96 h): 0.07 mM
- Efficiency at killing cancer cells of cisplatin combined with pentamidine versus cisplatin alone (cancer cells): up to 16,000 times
- Antitumour activity compared with cisplatin at 3–4 mg/Kg/ip ([6]; FIG. 13): as active as cisplatin
- Primary tumour effect, 50 mg/Kg pentamidine combined with adriamycin ([6]; FIG. 18): some beneficial effect
- Tumour response, combined with 3 mg/Kg cisplatin ([6]; FIGS. 14a and 14b): some animals showed a complete regression of the tumours
- Inhibition of cancer growth compared with cisplatinum ([6]; daily injection, FIG. 7): as effective in inhibiting the cancer growth as cisplatinum
- Most active dose on growth of LLC primary tumour ([6]; ip, p<0,01, FIGS. 10 to 15): 50 mg/kg
- Number of Metastases/Lung ([7]; 25 mg/kg): 23 ± 3
- Inhibition of lung metastases versus saline-treated control ([7]; 50 mg/Kg, p<0.001, FIG. 16): more than 50%
- Number of Metastases/Lung ([7]; 50 mg/kg): 10 ± 2
- Effect on metastases, 50 mg/Kg/ip pentamidine with 4 mg/kg/ip cisplatin ([7]; FIG. 17): enhanced effect
- Effect on metastases, 50 mg/Kg/ip pentamidine with 5 mg/kg adriamycin/iv ([7]; FIG. 20): some beneficial effect
- Effect on lung metastases ([7]; doses of 10–25 mg/Kg): no significant effect
- Reduction of lung metastases ([7]; highest dosage tested): reduced metastases in a dose dependant manner by a factor of three
- Most active dose on lung metastases ([7]; p<0.01): 50 mg/kg
- Highest tolerated dose [8]: 50 mg/kg
- CC50 ([3]; MCF7, 48 h): 150 µM
- CC50 ([3]; MCF7, 96 h): 80 µM
- CC50 (HT29 colon cancer cells [4]; HT-29, 48 h): 270 µM
- CC50 (HT29 colon cancer cells [4]; HT-29, 96 h): 60 µM
- Efficacy at slowing tumour growth ([9]; biodegradeable polymer tumour implant, 100 mm^3 RIF tumours, FIG. 5): intermediate in its efficacy at slowing tumour growth between the saline control and 5-fluorouracil
- Side effects in test mice ([9]; polymer implant plus radiation): no obvious signs of any side effects
- Tumour growth, combination with radiation ([9]; polymer implant plus radiation 24 hours after implant, FIG. 6): no significant tumour growth for a much longer period
- Acute toxicity (death) [10]: died because of acute toxicity

Compound: COc1cccc2c1C(=O)c1c(O)c3c(c(O)c1C2=O)C[C@@](O)(C(=O)CO)C[C@@H]3O[C@H]1C[C@H](N)[C@H](O)[C@H](C)O1 [adriamycin]
- Mortality ([6]; 7.5 mg/Kg/iv, highest dose tested, FIG. 19): 100%
- Antitumour effect on primary tumour ([6]; minimal dose of 5 mg/Kg iv): potent antitumour effect
